Article PMC9019904, “AD Informer Set: Chemical tools to facilitate Alzheimer's disease drug discovery” (Alzheimer's & Dementia : Translational Research & Clinical …, 2022)

Experiments:
[1] = tested on: HMC3 (human microglia) cell line; experiment: pHrodo-myelin phagocytosis/cell viability high content imaging assay: phagocytosis signal; format: cell-based
How it was run: (§1)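 Imaging at high content captured pHrodo-myelin uptake about 22 hours after its addition, alongside a viability read-out from the same cells. Three measurements were derived, with intensity increase marking early apoptosis and decrease marking later apoptosis.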

[2] = tested on: BV2 (mouse microglia) cell line; experiment: as above; format: cell-based
How it was run: as §1

[3] = tested on: HMC3 (human microglia) cell line; experiment: pHrodo-myelin phagocytosis/cell viability high content imaging assay: viability (cell count, nuclear area, nuclear intensity); conditions: 48 hours treatment
How it was run: (§2)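 10 μM single dose, 48 h total; pHrodo-myelin present final 20 h. Read-out: automated imaging, total cell count/well, mean nuclear intensity/cell. n=2, normalized to untreated wells, % control.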

[4] = tested on: BV2 (mouse microglia) cell line; experiment: as above; conditions: 48 hours treatment
How it was run: as §2

[5] = HMC3, compound 10 uM, pHrodo-myelin
[6] = BV2, compound 10 uM, pHrodo-myelin
[7] = HMC3 cells, 10 uM compound, 48 hours treatment, pHrodo-myelin final 20 hours
[8] = BV2 cells, 10 uM compound, 48 hours treatment, pHrodo-myelin final 20 hours

| Compound | 4. Phagocytosis (% control) [1, 5] [% control] | 4. Phagocytosis (% control) [2, 6] [% control] | 1. Cell count (% control) ([3]; HMC3, compound 10 uM) | 2. Nuclear Area (% Control) ([3]; HMC3, compound 10 uM) | 3. Nuclear DNA Intensity (% control) ([3]; HMC3, compound 10 uM) | 1. Cell count (% control) ([4]; BV2, compound 10 uM) | 2. Nuclear Area (% Control) ([4]; BV2, compound 10 uM) | 3. Nuclear DNA Intensity (% control) ([4]; BV2, compound 10 uM) | 4. Phagocytosis (% control) [1, 7] [% control] | 4. Phagocytosis (% control) [2, 8] [% control] | 1. Cell count (% control) ([3]; HMC3 cells, 10 uM compound) | 2. Nuclear Area (% Control) ([3]; HMC3 cells, 10 uM compound) | 3. Nuclear DNA Intensity (% control) ([3]; HMC3 cells, 10 uM compound) | 1. Cell count (% control) ([4]; BV2 cells, 10 uM compound) | 2. Nuclear Area (% Control) ([4]; BV2 cells, 10 uM compound) | 3. Nuclear DNA Intensity (% control) ([4]; BV2 cells, 10 uM compound) |
| --- | --- | --- | --- | --- | --- | --- | --- | --- | --- | --- | --- | --- | --- | --- | --- | --- |
| CCOC(=O)c1cccc(CNc2ccc(N(C)C(=O)Nc3ccccc3)cc2)c1 [UNC10302705A] | 139.7 | 194.2 | 79.1 | 96.2 | 114.6 | 77.7 | 107.2 | 109.9 | – | – | – | – | – | – | – | – |
| c1ccc(-c2nn3c(c2-c2ccnc4cc(OCCN5CCOCC5)ccc24)CCC3)nc1 [UNC10302849A] | – | – | – | – | – | – | – | – | 64.5 | 134.3 | 117.4 | 115.4 | 85.1 | 150.2 | 109.6 | 98.8 |
| C[C@H]1Oc2cc(cnc2N)-c2c(nn(C)c2C#N)CN(C)C(=O)c2ccc(F)cc21 [UNC10244898A] | – | – | – | – | – | – | – | – | 37.8 | 200.3 | 127.2 | 110.3 | 89.2 | 117.2 | 102.7 | 110.1 |
| Cc1ccc(F)c(NC(=O)Nc2ccc(-c3cccc4[nH]nc(N)c34)cc2)c1 [UNC10302874A] | 29.4 | 235.2 | 43.1 | 121.8 | 105.6 | 24.4 | 127.6 | 103.1 | – | – | – | – | – | – | – | – |
| O=c1ccc2c(OCCCCOc3ccccc3)c3ccoc3cc2o1 [UNC10302901A] | – | – | – | – | – | – | – | – | 89.9 | 188.1 | 143.5 | 101.6 | 95.5 | 138.9 | 105.4 | 102.9 |
| C[C@H](NC(=O)c1sccc1OCc1ccc(Cl)cc1)c1ccccc1 [UNC10302704A] | 66.4 | 123.4 | 112.7 | 95.6 | 89.7 | 95.5 | 101.0 | 97.2 | – | – | – | – | – | – | – | – |
| O=C(NC1CCNCC1)c1[nH]ncc1NC(=O)c1c(Cl)cccc1Cl [UNC10302839A] | 183.7 | 18.2 | 70.4 | 131.0 | 97.4 | 4.8 | 121.7 | 82.5 | – | – | – | – | – | – | – | – |
| O=c1ccc2c(OCCCCc3ccccc3)c3ccoc3cc2o1 [UNC10100197A] | 60.7 | 195.3 | 124.6 | 99.9 | 93.8 | 106.2 | 106.9 | 106.7 | – | – | – | – | – | – | – | – |
| O=C1CCc2cc(OCCCCc3nnnn3C3CCCCC3)ccc2N1 [UNC10100278A] | – | – | – | – | – | – | – | – | 104.4 | 125.3 | 103.2 | 103.0 | 97.0 | 112.3 | 103.2 | 104.4 |
| NC(=O)[C@@H]1CC[C@H](c2ccc(OCc3ccccc3F)cc2)N1 [UNC10303186A] | 105.3 | 194.5 | 128.0 | 102.6 | 95.0 | 138.2 | 103.3 | 100.1 | – | – | – | – | – | – | – | – |
| CCn1c(=O)/c(=C2\Sc3ccccc3N2C)s/c1=C\c1ccccn1 [UNC10302975A] | – | – | – | – | – | – | – | – | 87.9 | 118.8 | 120.1 | 99.3 | 95.9 | 107.1 | 104.2 | 108.3 |
| Cc1cc(NC(=O)Nc2ccccc2)n(-c2ccccc2)n1 [UNC10302880A] | – | – | – | – | – | – | – | – | 71.0 | 135.3 | 145.4 | 97.9 | 96.8 | 120.0 | 104.5 | 102.6 |
| Cc1cnc(Nc2ccc(F)cc2Cl)nc1-c1c[nH]c(C(=O)N[C@H](CO)c2cccc(Cl)c2)c1 [UNC10302866A] | – | – | – | – | – | – | – | – | 72.8 | 108.3 | 106.8 | 98.0 | 96.6 | 83.7 | 101.5 | 113.9 |
| CC(C)Nc1cc(-c2c[nH]c(C(=O)N[C@H](CO)c3cccc(Cl)c3)c2)c(Cl)cn1 [UNC10302869A] | – | – | – | – | – | – | – | – | 59.0 | 222.2 | 116.3 | 105.5 | 89.1 | 44.0 | 125.5 | 96.6 |
| O=c1ncn2nc(Sc3ccc(F)cc3F)ccc2c1-c1c(Cl)cccc1Cl [UNC10303093A] | – | – | – | – | – | – | – | – | 71.1 | 151.8 | 125.9 | 98.4 | 98.8 | 114.5 | 100.4 | 110.5 |
